{"source": "patent US8815880B2", "about": "“Crystal of tricyclic pyrazolopyrimidine derivative” (Daiichi Sankyo Company, Limited, priority 2010, dated 2014)", "key": {"[1]": {"tested_on": "human breast cancer cell line SK-BR-3", "assay": "Cell growth inhibition assay (MTT), SK-BR-3", "format": "cell-based", "conditions": "SK-BR-3 cells, 72 hours, read-out: GI50 value (50% growth inhibitory concentration)", "procedure": "(§1) A cell growth inhibition assay was performed using two types of cells (human breast cancer cell line SK-BR-3 and human lung cancer cell line NCI-H460).\n(§2) Cells of each type were suspended in a medium and seeded into a 96-well multi-well plate at 2000 cells/150 μL/well in the case of SK-BR-3 and at 500 cells/150 μL/well in the case of NCI-H460. Compound (1) was dissolved in DMSO, and this was diluted with medium to prepare a sample solution (DMSO concentration: 0.5% or less). On the day following the seeding, 50 μL of DMSO-containing medium to which the test compound was not added (hereinafter called DMSO diluted solution; DMSO concentration: 0.5% or less) or 50 μL of the sample solution was further added to the cells. An MTT assay was performed immediately after and 72 hours after adding the sample solution or the DMSO diluted solution to the cells. The MTT assay was performed as follows.\n(§3) 5 mg/mL of an MTT (3-(4,5-dimethylthiazol-2-yl)-2,5-diphenyltetrazolium bromide) solution was added at 20 μL per well. Thereafter, the plate was incubated at 37° C. in 5% CO2 for four hours. The plate was centrifuged at 1200 rpm for five minutes, and then the culture supernatant was removed by suction using a dispenser. DMSO was added at 150 μL per well, and the generated formazan was dissolved. […] The absorbance of each well was measured using a plate reader at an OD of 540 nm with a reference of 660 nm. […]"}, "[2]": {"tested_on": "human lung cancer cell line NCI-H460", "assay": "Cell growth inhibition assay (MTT), NCI-H460", "format": "cell-based", "conditions": "NCI-H460 cells, 72 hours, read-out: GI50 value (50% growth inhibitory concentration)", "procedure": "as §1, §2, §3"}, "[3]": {"assay": "Purity test and stability test (accelerated test, HPLC related substances)", "format": "physicochemical", "conditions": "monohydrochloride", "procedure": "Purity Test and Stability Test\n• Condition 1: 40° C., humidity: 75% • Condition 2: 60° C. (without humidity control)\nSamples under the aforementioned accelerated test conditions were measured by high performance liquid chromatography as described below.\nAn analyte for the accelerated test was dissolved in the sample-dissolved solution to prepare an approximately 0.5 g/L solution.\n• Column: YMC-Pack Pro C18RS, 3.0 mm ID×150 mm, particle diameter: 3 μm • Column temperature: approximately 40° C. • Gradient conditions:\n45 to 55 minutes, mobile phase A: 0/mobile phase B: 100 • Flow rate: 0.7 ml/min • Measurement range: 0 to 55 minutes • Detection wavelength: 240 nm • Amount of sample solution injected: 5 μl <Calculation> • 1) The sample solution was injected into the column, so as to obtain the peak area (A) of each related substance and the peak area (T) of compound (1). • 2) The sample-dissolved solution was injected into the column, so as to obtain the peak area (B) of each blank. • 3) The amount [%] of each related substance was calculated using the formula: The amount [%] of each related substance=100×(A−B)÷T <Measurement Results>"}, "[4]": {"conditions": "Accelerated condition 1: 40° C., humidity 75%, 2 weeks"}, "[5]": {"conditions": "Accelerated condition 1: 40° C., humidity 75%, 4 weeks"}, "[6]": {"conditions": "Accelerated condition 2: 60° C. (without humidity control), 2 weeks"}, "[7]": {"conditions": "Accelerated condition 2: 60° C. (without humidity control), 4 weeks"}, "[8]": {"conditions": "Purity test (Initial), before accelerated test"}}}
{"smiles": "CNC(=O)CC1=Cc2nn(Cc3ncc(C)c(OC)c3Cl)c3nc(N)nc(c23)SC1", "note": "[Compound (1), 2-{4-amino-2-[(3-chloro-4-methoxy-5-methylpyridin-2-yl)methyl]-2,7-dihydro-6-thia-1,2,3,5-tetraazabenzo[cd]azulen-8-yl}-N-methylacetamide]", "values": [{"measurement": "GI50", "setting": "[1]", "result": 13, "unit": "nM"}, {"measurement": "GI50", "setting": "[2]", "result": 26, "unit": "nM"}]}
{"smiles": "CNC(=O)CC1=Cc2nn(Cc3ncc(C)c(OC)c3Cl)c3nc(N)nc(c23)SC1.Cl", "note": "[Example 4, 2-{4-Amino-2-[(3-chloro-4-methoxy-5-methylpyridin-2-yl)methyl]-2,7-dihydro-6-thia-1,2,3,5-tetraazabenzo[cd]azulen-8-yl}-N-methylacetamide monohydrochloride]", "values": [{"measurement": "Impurity (rrt 0.43) amount", "setting": "[3]; [4]", "result": 0.94, "unit": "%"}, {"measurement": "Impurity: Total of unspecified", "setting": "[3]; [4]", "result": 1.83, "unit": "%"}, {"measurement": "Impurity (rrt 0.43) amount", "setting": "[3]; [5]", "result": 1.04, "unit": "%"}, {"measurement": "Impurity: Total of unspecified", "setting": "[3]; [5]", "result": 2.08, "unit": "%"}, {"measurement": "Impurity (rrt 0.43) amount", "setting": "[3]; [6]", "result": 1.09, "unit": "%"}, {"measurement": "Impurity: Total of unspecified", "setting": "[3]; [6]", "result": 2.31, "unit": "%"}, {"measurement": "Impurity (rrt 0.43) amount", "setting": "[3]; [7]", "result": 1.21, "unit": "%"}, {"measurement": "Impurity: Total of unspecified", "setting": "[3]; [7]", "result": 2.42, "unit": "%"}, {"measurement": "Impurity (rrt 0.43) amount", "setting": "[3]; [8]", "result": 0.75, "unit": "%"}, {"measurement": "Impurity: Total of unspecified", "setting": "[3]; [8]", "result": 1.64, "unit": "%"}]}
{"smiles": "CNC(=O)CC1=Cc2nn(Cc3ncc(C)c(OC)c3Cl)c3nc(N)nc(c23)SC1.Cl", "note": "[Example 12, 2-{4-Amino-2-[(3-chloro-4-methoxy-5-methylpyridin-2-yl)methyl]-2,7-dihydro-6-thia-1,2,3,5-tetraazabenzo[cd]azulen-8-yl}-N-methylacetamide monohydrochloride]", "values": [{"measurement": "Impurity (rrt 0.43) amount", "setting": "[3]; [4]", "result": 0.30, "unit": "%"}, {"measurement": "Impurity: Total of unspecified", "setting": "[3]; [4]", "result": 1.08, "unit": "%"}, {"measurement": "Impurity (rrt 0.43) amount", "setting": "[3]; [5]", "result": 0.33, "unit": "%"}, {"measurement": "Impurity: Total of unspecified", "setting": "[3]; [5]", "result": 1.09, "unit": "%"}, {"measurement": "Impurity (rrt 0.43) amount", "setting": "[3]; [6]", "result": 0.32, "unit": "%"}, {"measurement": "Impurity: Total of unspecified", "setting": "[3]; [6]", "result": 1.20, "unit": "%"}, {"measurement": "Impurity (rrt 0.43) amount", "setting": "[3]; [7]", "result": 0.33, "unit": "%"}, {"measurement": "Impurity: Total of unspecified", "setting": "[3]; [7]", "result": 1.20, "unit": "%"}, {"measurement": "Impurity (rrt 0.43) amount", "setting": "[3]; [8]", "result": 0.27, "unit": "%"}, {"measurement": "Impurity: Total of unspecified", "setting": "[3]; [8]", "result": 1.00, "unit": "%"}]}
{"smiles": "CNC(=O)CC1=Cc2nn(Cc3ncc(C)c(OC)c3Cl)c3nc(N)nc(c23)SC1.Cl", "note": "[Example 28, 2-{4-Amino-2-[(3-chloro-4-methoxy-5-methylpyridin-2-yl)methyl]-2,7-dihydro-6-thia-1,2,3,5-tetraazabenzo[cd]azulen-8-yl}-N-methylacetamide monohydrochloride]", "values": [{"measurement": "Impurity (rrt 0.43) amount", "setting": "[3]; [4]", "result": 0.41, "unit": "%"}, {"measurement": "Impurity: Total of unspecified", "setting": "[3]; [4]", "result": 1.14, "unit": "%"}, {"measurement": "Impurity (rrt 0.43) amount", "setting": "[3]; [5]", "result": 0.44, "unit": "%"}, {"measurement": "Impurity: Total of unspecified", "setting": "[3]; [5]", "result": 1.12, "unit": "%"}, {"measurement": "Impurity (rrt 0.43) amount", "setting": "[3]; [6]", "result": 0.44, "unit": "%"}, {"measurement": "Impurity: Total of unspecified", "setting": "[3]; [6]", "result": 1.25, "unit": "%"}, {"measurement": "Impurity (rrt 0.43) amount", "setting": "[3]; [7]", "result": 0.45, "unit": "%"}, {"measurement": "Impurity: Total of unspecified", "setting": "[3]; [7]", "result": 1.18, "unit": "%"}, {"measurement": "Impurity (rrt 0.43) amount", "setting": "[3]; [8]", "result": 0.37, "unit": "%"}, {"measurement": "Impurity: Total of unspecified", "setting": "[3]; [8]", "result": 1.07, "unit": "%"}]}
